Consider 13 molecules from patent publication US5004780A, “Cyclic monoperoxyketal” (priority 1988, dated 1991).

Common to all, as to type: physicochemical
A short description of data set [1]: Amounts of ketone and alcohol formed by the thermal decomposition of peroxyketal in cumene. The note with it: 100° C. Here is the method:
The amount of ketone and that of alcohol contained in each of the thermal decomposition solutions obtained in Examples 6-12 and Comparative examples 1-6 were measured by means of a gas chromatography. The numbers of mols of ketone and alcohol per 1 mol of each of decomposed cyclic monoperoxyketal or cyclic bisperoxyketal were measured. The obtained results are shown in the following Table 4 as Examples 17-22 and Comparative examples 8-13.

Data set [2] can be described thus: Solubility of peroxyketal in unsaturated polyester resin. More on the design: key: .circle.: Complete dissolving; Δ: Fairly long time was required in dissolving; X: Incomplete dissolving (white turbid).
Data set [3] can be described thus: Thermal decomposition of peroxyketal in cumene at 100° C. The note with it: 0.05 mol/l; for Half-life period: 50000 µM. Here is the method: (§1) A 0.05 mol/l cumene solution of each of the cyclic monoperoxyketals of the present invention produced in Examples 1-6 and the cyclic bisperoxyketals produced in the same manner as described in Examples 1-6 was prepared. A given amount of each sample solution was sampled into a glass ampule, and the sample solution was deaerated by a freezing method, and then the ampule was sealed under vacuum. Then, the ampules were put in a thermostat kept at 100° C., and taken out from the thermostate every predetermined times, and the concentration of peroxyketal was measured by a gas chromatography or liquid chromatography. The decomposition rate constant and half-life period of a sample peroxyketal were calculated from the disappearing rate of the peroxyketal. The obtained results are shown in the following Table 1 as Examples 6-12 and Comparative examples 1-6.

Data set [4] in a line: Thermal decomposition product of peroxyketal in cumene (gas chromatography). The method, then: Each of the thermal decomposition reaction solutions of Example 7 and Comparative example 1 was analyzed by means of a gas chromatography to measure the thermal decomposition products. The number of mols of the decomposition products per 1 mol of each of the decomposed peroxyketals was calculated. The obtained results are shown in the following Table 3 as Example 16 and Comparative example 7.

A short description of data set [5]: Thermal decomposition of 1-methoxy-1-(1,1-dimethylethylperoxy)cyclohexane at 100° C. in n-hexane, n-dodecane or n-hexadecane. Conditions: for Half-life period: 50000 µM. Here is the method: as §1
Thermal decomposition of 1-methoxy-1-(1,1-dimethylethylperoxy)cyclohexane at 100° C. was carried out in the same manner as described in Example 7, except that n-hexane, n-dodecane or n-hexadecane was used as a solvent in place of cumene, and the thermal decomposition rate constant and half-life period of the cyclic monoperoxyketal in these solvents were measured.

The mark [6] stands for this setting: n-hexadecane, viscosity 0.900 cp.

Regarding `CC(C)(C)CC(C)(C)OOC1(OOC(C)(C)CC(C)(C)C)CCCCC1` [compound 4, 1,1-bis(1,1,3,3-tetramethylbutylperoxy)cyclohexane, reference compound], in data set [1], the “Ratio of ketone to alcohol” value amounted to 1.21, the “Thermal decomposition product: Alcohol” value is 0.24 mols per 1 mol of decomposed p and the “Thermal decomposition product: Ketone” value was 0.29 mols per 1 mol of decomposed p. In addition, the Solubility result in data set [2] is “X”. For the same molecule, in data set [3], the Decomposition rate constant is recorded as 19.83 ×10^5 (1/sec) and the Half-life period turned out to be 0.97 h.

Consider `CC(C)(C)OOC(=O)c1ccccc1` [compound 28, 1,1-dimethylethyl peroxybenzoate], for which the Solubility entry in data set [2] was “.circle”.

As for `COC1(OOC(C)(C)c2ccccc2)CCCCC1` [Example 11, 1-methoxy-1-(1-methyl-1-phenylethylperoxy)cyclohexane], in data set [1], the “Ratio of ketone to alcohol” value came to 0.42, the “Thermal decomposition product: Alcohol” value was 0.60 mols per 1 mol of decomposed p and the “Thermal decomposition product: Ketone (Acetophenone is formed)” value is on record as 0.25 mols per 1 mol of decomposed p. The Solubility entry in data set [2] was “.circle”. Further, in data set [3], the Decomposition rate constant is listed as 11.32 ×10^5 (1/sec) and the Half-life period turned out to be 1.70 h.

Consider `CCC(C)(C)OOC1(OOC(C)(C)CC)CCCCC1` [compound 2, 1,1-bis(1,1-dimethylpropylperoxy)cyclohexane, reference compound], for which, in data set [1], the “Ratio of ketone to alcohol” value worked out at 2.81, the “Thermal decomposition product: Alcohol” value is 0.26 mols per 1 mol of decomposed p and the “Thermal decomposition product: Ketone” value is on record as 0.73 mols per 1 mol of decomposed p. Besides, the Solubility entry in data set [2] is “Δ”. Also, in data set [3], the Decomposition rate constant was 7.32 ×10^5 (1/sec) and the Half-life period was 2.63 h.

With `CCCC(C)(C)OOC1(OC)CCCCC1` [Example 9, 1-methoxy-1-(1,1-dimethylbutylperoxy)cyclohexane], in data set [1], the “Ratio of ketone to alcohol” value came out at 2.26, the “Thermal decomposition product: Alcohol” value was 0.31 mols per 1 mol of decomposed p and the “Thermal decomposition product: Ketone” value was 0.70 mols per 1 mol of decomposed p. The Solubility result in data set [2] is given as “.circle”. In addition, in data set [3], the Decomposition rate constant is 11.20 ×10^5 (1/sec) and the Half-life period turned out to be 1.72 h.

As for `CC(C)(C)OOC1(OOC(C)(C)C)CCCCC1` [Comparative example 1, 1,1-bis(1,1-dimethylethylperoxy)cyclohexane, reference compound], in data set [1], the “Ratio of ketone to alcohol” value was determined as 0.01, the “Thermal decomposition product: Alcohol” value was 1.37 mols per 1 mol of decomposed p and the “Thermal decomposition product: Ketone” value is 0.02 mols per 1 mol of decomposed p. Further, the “Thermal decomposition product: 1,1-dimethylperoxyhexanoate” value in data set [4] (100° C., 1,1-dimethylperoxyhexanoate) is 0.35 Number of mols per 1 mol of de. Moreover, in data set [4] (100° C.), the “Thermal decomposition product: biscumyl” value was 0.69 Number of mols per 1 mol of de and the “Thermal decomposition product: t-butanol” value is 1.06 Number of mols per 1 mol of de. The Solubility result in data set [2] is “.circle”. For the same molecule, in data set [3], the Decomposition rate constant is given as 5.06 ×10^5 (1/sec) and the Half-life period came to 3.81 h.

In the case of `CCC(C)(C)OOC1(OC)CCCCC1` [Example 8, 1-methoxy-1-(1,1-dimethylpropylperoxy)cyclohexane], in data set [1], the “Ratio of ketone to alcohol” value is on record as 5.71, the “Thermal decomposition product: Alcohol” value was 0.14 mols per 1 mol of decomposed p and the “Thermal decomposition product: Ketone” value is recorded as 0.80 mols per 1 mol of decomposed p. Further, in data set [2], the Solubility entry was “.circle”. In addition, in data set [3], the Decomposition rate constant was 10.58 ×10^5 (1/sec) and the Half-life period is 1.82 h.

On to `CC(C)(OOC1(OOC(C)(C)c2ccccc2)CCCCC1)c1ccccc1` [compound 5, 1,1-bis(1-methyl-1-phenylethylperoxy)cyclohexane, reference compound], for which, in data set [1], the “Ratio of ketone to alcohol” value turned out to be 0.41, the “Thermal decomposition product: Alcohol” value was 1.00 mols per 1 mol of decomposed p and the “Thermal decomposition product: Ketone (Acetophenone is formed)” value is reported as 0.41 mols per 1 mol of decomposed p. Moreover, the Solubility result in data set [2] is reported as “.circle”. In addition, in data set [3], the Decomposition rate constant is 8.24 ×10^5 (1/sec) and the Half-life period was determined as 2.34 h.

Consider `COC1(OOC(C)(C)CC(C)(C)C)CCCCC1` [Example 10, 1-methoxy-1-(1,1,3,3-tetramethylbutylperoxy)cyclohexane], for which, in data set [1], the “Ratio of ketone to alcohol” value was 79.0, the “Thermal decomposition product: Alcohol” value is on record as 0.01 mols per 1 mol of decomposed p and the “Thermal decomposition product: Ketone” value is 0.79 mols per 1 mol of decomposed p. For the same molecule, in data set [2], the Solubility entry is listed as “.circle”. Also, in data set [3], the Decomposition rate constant is recorded as 28.40 ×10^5 (1/sec) and the Half-life period is 0.68 h.

`CCCC(C)(C)OOC1(OC)CC(C)CC(C)(C)C1` (centres unmarked) [Example 12, 1-methoxy-1-(1,1-dimethylbutylperoxy)-3,3,5-trimethylcyclohexane]: in data set [1], the “Ratio of ketone to alcohol” value was found to be 2.27, the “Thermal decomposition product: Alcohol” value was 0.30 mols per 1 mol of decomposed p and the “Thermal decomposition product: Ketone” value is reported as 0.68 mols per 1 mol of decomposed p. Further, in data set [2], the Solubility entry was “.circle”. In data set [3], the Decomposition rate constant is listed as 11.25 ×10^5 (1/sec) and the Half-life period came to 1.71 h.

As to `COC1(OOC(C)(C)C)CCCCC1` [Example 7, 1-methoxy-1-(1,1-dimethylethylperoxy)cyclohexane], in data set [1], the “Ratio of ketone to alcohol” value amounted to 0.21, the “Thermal decomposition product: Alcohol” value was 0.47 mols per 1 mol of decomposed p and the “Thermal decomposition product: Ketone” value is on record as 0.10 mols per 1 mol of decomposed p. The “Thermal decomposition product: acetone” value in data set [4] (100° C., acetone) was 0.10 Number of mols per 1 mol of de. Further, in data set [4] (100° C.), the “Thermal decomposition product: biscumyl” value is reported as 0.50 Number of mols per 1 mol of de and the “Thermal decomposition product: t-butanol” value was 0.47 Number of mols per 1 mol of de. For the same molecule, the “Thermal decomposition product: methyl hexanoate” value in data set [4] (100° C., methyl hexanoate) is on record as 0.59 Number of mols per 1 mol of de. In addition, the Solubility result in data set [2] was “.circle”. Moreover, in data set [3], the Decomposition rate constant is reported as 6.79 ×10^5 (1/sec) and the Half-life period worked out at 2.84 h. Besides, in data set [5] (n-dodecane, viscosity 0.520 cp), the Decomposition rate constant was 4.71 ×10^5 (1/sec) and the Half-life period turned out to be 4.09 h. In addition, in data set [5] (setting [6]), the Decomposition rate constant was 4.23 ×10^5 (1/sec) and the Half-life period is 4.55 h. In data set [5] (n-hexane, viscosity 0.168 cp), the Decomposition rate constant is reported as 5.13 ×10^5 (1/sec) and the Half-life period turned out to be 3.75 h.

Consider `CCCC(C)(C)OOC1(OOC(C)(C)CCC)CCCCC1` [compound 3, 1,1-bis(1,1-dimethylbutylperoxy)cyclohexane, reference compound], for which, in data set [1], the “Ratio of ketone to alcohol” value is listed as 1.28, the “Thermal decomposition product: Alcohol” value is recorded as 0.65 mols per 1 mol of decomposed p and the “Thermal decomposition product: Ketone” value is given as 0.83 mols per 1 mol of decomposed p. The Solubility result in data set [2] is recorded as “Δ”. Moreover, in data set [3], the Decomposition rate constant is listed as 7.48 ×10^5 (1/sec) and the Half-life period came out at 2.57 h.

For `CCCC(C)(C)OOC1(OOC(C)(C)CCC)CC(C)CC(C)(C)C1` (centres unmarked) [compound 6, 1,1-bis(1,1-dimethylbutylperoxy)-3,3,5-trimethylcyclohexane, reference compound], in data set [1], the “Ratio of ketone to alcohol” value came to 1.25, the “Thermal decomposition product: Alcohol” value is 0.64 mols per 1 mol of decomposed p and the “Thermal decomposition product: Ketone” value is 0.80 mols per 1 mol of decomposed p. Besides, the Solubility result in data set [2] is given as “Δ”. Besides, in data set [3], the Decomposition rate constant was 7.50 ×10^5 (1/sec) and the Half-life period came to 2.57 h.
